For twelve compounds, IC50, CC50 and EC50 results are on record in patent publication US8003659B2, “Macrocyclic serine protease inhibitors” (Indenix Pharmaceuticals, Inc., priority 2008, dated 2011).

Structures are written as SMILES. Bounds are passed on as bounds.

The target of series [1] is T1, HCV NS3-NS4A protease (Hepatitis C virus genotype 1b, UniProt P26663).
T1 construct: made in house
The series can be described thus: HCV Protease Assay (SensoLyte 620 HCV Protease Assay kit). The class given is biochemical. The following applies: 1.2 nM HCV NS3-NS4A protease, 60 min at room temperature, 5% DMSO. The protocol: General procedure: Measurement of the inhibitory effect of compounds on HCV protease activity was performed with the SensoLyte™ 620 HCV Protease Assay kit from AnaSpec, Inc. (San Jose, Calif.) under conditions described by the supplier using 1.2 nM HCV NS3-NS4A protease, which was obtained according to Taremi et al. (Protein Science, 1998, 7, 2143-2149). The compounds were tested at a variety of concentrations in assay buffer containing a final DMSO concentration of 5%. Reactions were allowed to proceed for 60 min at room temperature and fluorescence measurements were recorded with a Tecan Infinity Spectrofluorimeter. The IC50 values were determined from the percent inhibition versus concentration data using a sigmoidal non-linear regression analysis based on four parameters with Tecan Magellan software.

Series [2] can be described thus: Cytotoxicity evaluation (Cell Titer 96 AQueous One Solution Cell Proliferation Assay). The class given is cell-based. To be noted: human; GS4.1 cells, cellular viability. As to the method: For cytotoxicity evaluation, GS4.1 cells were treated with compounds as described above and cellular viability was monitored using the Cell Titer 96 AQueous One Solution Cell Proliferation Assay (Promega). CC50 values were determined from the % cytotoxicity versus concentration data with Tecan Magellan software as described above.

The subject of series [3] is Huh-7 cells containing HCV Con1 subgenomic replicon (GS4.1 cells). The series can be described thus: HCV Replicon Assay (NS4A ELISA). The class given is cell-based. The following applies: Hepatitis C virus, Huh-7, 72 hr, NS4A protein by ELISA. As to the method: General procedure: Huh-7 cells containing HCV Con1 subgenomic replicon (GS4.1 cells) were grown in Dulbecco's Modified Eagle Medium (DMEM) supplemented with 10% fetal bovine serum (FBS), 2 mM L-glutamine, 110 mg/L sodium pyruvate, 1× non-essential amino acids, 100 U/mL penicillin-streptomycin, and 0.5 mg/mL G418 (Invitrogen). For dose-response testing, the cells were seeded in 96-well plates at 7.5×10^3 cells/well in a volume of 50 μL, and incubated at 37° C./5% CO2. Three hours after plating, 50 μL of ten 2-fold serial dilutions of compounds (highest concentration, 75 μM) were added, and cell cultures were incubated at 37° C./5% CO2 in the presence of 0.5% DMSO. Alternatively, compounds were tested at a single concentration of 15 μM. In all cases, Huh-7 cells lacking the HCV replicon served as negative control. The cells were incubated in the presence of compounds for 72 hr after which they were monitored for expression of the NS4A protein by enzyme-linked immunosorbent assay (ELISA). For this, the plates were then fixed for 1 min with acetone/methanol (1:1, v/v), washed twice with phosphate-buffered saline (PBS), 0.1% Tween 20, blocked for 1 hr at room temperature with TNE buffer containing 10% FBS and then incubated for 2 hr at 37° C. with the anti-NS4A mouse monoclonal antibody A-236 (ViroGen) diluted in the same buffer. After washing three times with PBS, 0.1% Tween 20, the cells were incubated 1 hr at 37° C. with anti-mouse immunoglobulin G-peroxidase conjugate in TNE, 10% FBS. After washing as described above, the reaction was developed with O-phenylenediamine (Zymed). The reaction was stopped after 30 min with 2 NH2SO4, and absorbance was read at 492 nm using Sunrise Tecan spectrophotometer. EC50 values were determined from the % inhibition versus concentration data using a sigmoidal non-linear regression analysis based on four parameters with Tecan Magellan software. When screening at a single concentration, the results were expressed as % inhibition at 15 μM.
Background: Replicon systems follow genome replication, usually without infectious particles.

T1 sequence (P26663 1027-1208): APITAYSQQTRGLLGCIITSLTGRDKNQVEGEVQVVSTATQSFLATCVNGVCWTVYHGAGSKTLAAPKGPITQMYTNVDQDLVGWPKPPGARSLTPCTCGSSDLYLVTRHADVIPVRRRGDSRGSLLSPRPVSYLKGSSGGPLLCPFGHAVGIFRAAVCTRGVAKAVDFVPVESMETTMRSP

Usually IC50 stands for the concentration that inhibits the measured activity by half. Low values mean higher potency, high ones lower potency. A word on the CC50: it is the concentration giving 50% cytotoxicity. Lower therefore signals greater toxicity to the cells. A word on the EC50: it is the concentration giving half of the maximal effect. For the compound `COc1ccc2c(O[C@H]3C[C@H]4C(=O)N(C)CCCC/C=C\[C@@H]5C[C@@]5(C(=O)NS(=O)(=O)C5CC5)NC(=O)N4C3)cc(-c3nc(C4CC4)cs3)nc2c1Cl` [AC1, (Z)-(4R,6S,15S,17S)-[17-[8-chloro-7-methoxy-2-(4-cyclopropylthiazol-2-yl)quinolin-4-yloxy]-13-N-methyl-2,14-dioxo-1,3,13-triazatricyclo-[13.3.0.0]octadec-7-en-4-yl]carbonyl-(cyclopropyl)sulfonamide], the IC50 in series [1] was less than 1 µM. For the same compound, the CC50 in series [2] lay within 10 to 75 µM. The EC50 in series [3] was less than 1 µM.

In the case of `COc1ccc2c(O[C@H]3C[C@H]4C(=O)N(C)CCCC/C=C\[C@@H]5C[C@@]5(C(=O)NS(=O)(=O)C5CC5)NC(=O)N4C3)cc(-c3nc(C4CCC4)cs3)nc2c1Cl` [AC2, (Z)-(4R,6S,15S,17S)-[17-[8-chloro-7-methoxy-2-(4-cyclobutylthiazol-2-yl)quinolin-4-yloxy]-13-N-methyl-2,14-dioxo-1,3,13-triazatricyclo-[13.3.0.0]octadec-7-en-4-yl]carbonyl-(cyclopropyl)sulfonamide], the IC50 in series [1] was less than 1 µM. Moreover, the CC50 in series [2] was in the range of 10 to 75 µM. The compound also came in with an EC50 in series [3] of less than 1 µM.

`COc1ccc2c(O[C@H]3C[C@H]4C(=O)N(C)CCCC/C=C\[C@@H]5C[C@@]5(C(=O)NS(=O)(=O)C5(C)CC5)NC(=O)N4C3)cc(-c3nc(C4CCC4)cs3)nc2c1Cl` [AC3, (Z)-(4R,6S,15S,17S)-[17-[8-chloro-7-methoxy-2-(4-cyclobutylthiazol-2-yl)quinolin-4-yloxy]-13-N-methyl-2,14-dioxo-1,3,13-triazatricyclo-[13.3.0.0]octadec-7-en-4-yl]carbonyl-(1-methylcyclopropyl)sulfonamide] came in with an IC50 in series [1] of less than 1 µM. The same compound showed a CC50 in series [2] greater than 75 µM. Also, the concentration for a half-maximal effect (EC50) in series [3] is less than 1 µM.

Take `C=Cc1csc(-c2cc(O[C@H]3C[C@H]4C(=O)N(C)CCCC/C=C\[C@@H]5C[C@@]5(C(=O)NS(=O)(=O)C5(C)CC5)NC(=O)N4C3)c3ccc(OC)c(Cl)c3n2)n1` [AH, (Z)-(4R,6S,15S,17S)-[17-[8-chloro-7-methoxy-2-(4-vinylthiazol-2-yl)quinolin-4-yloxy]-13-N-methyl-2,14-dioxo-1,3,13-triazatricyclo-[13.3.0.0]octadec-7-en-4-yl]carbonyl(1-methyl-cyclopropyl)sulfonamide]: the IC50 in series [1] is less than 1 µM. Moreover, the CC50 in series [2] lay within 10 to 75 µM. In series [3], this compound had an EC50 of less than 1 µM.

On to `COc1ccc2c(O[C@H]3C[C@H]4C(=O)N(C)CCCC/C=C\[C@@H]5C[C@@]5(C(=O)NS(=O)(=O)C5CC5)NC(=O)N4C3)cc(-c3nc(C)cs3)nc2c1Cl` [AN, (Z)-(4R,6S,15S,17S)-[17-[8-chloro-7-methoxy-2-(4-methylthiazol-4-yl)quinolin-4-yloxy]-13-N-methyl-2,14-dioxo-1,3,13-triazatricyclo-[13.3.0.0]octadec-7-en-4-yl]carbonyl-(cyclopropyl)sulfonamide], for which the IC50 in series [1] was less than 1 µM. Further, in series [2], the CC50 lay within 10 to 75 µM. Also, in series [3], the EC50 is less than 1 µM.

`COc1ccc2c(O[C@H]3C[C@H]4C(=O)N(C)CCCC/C=C\[C@@H]5C[C@@]5(C(=O)NS(=O)(=O)C5(C)CC5)NC(=O)N4C3)cc(-c3nc(C(C)C)cs3)nc2c1` [Compound 56a, (Z)-(4R,6S,15S,17S)-[17-[7-methoxy-2-(4-isopropylthiazol-2-yl)quinolin-4-yloxy]-13-N-methyl-2,14-dioxo-1,3,13-triazatricyclo-[13.3.0.0]octadec-7-en-4-yl]carbonyl(1-methyl-cyclopropyl)sulfonamide] registered an IC50 in series [1] of less than 1 µM. Also, the CC50 in series [2] is greater than 75 µM. Besides, in series [3], the EC50 is less than 1 µM.

In turn, `COc1ccc2c(O[C@H]3C[C@H]4C(=O)N(C)CCCC/C=C\[C@@H]5C[C@@]5(C(=O)NS(=O)(=O)C5(C)CC5)NC(=O)N4C3)cc(-c3nc(C(C)C)cs3)nc2c1F` [Compound 56c, (Z)-(4R,6S,15S,17S)-[17-[8-fluoro-7-methoxy-2-(4-isopropylthiazol-2-yl)quinolin-4-yloxy]-13-N-methyl-2,14-dioxo-1,3,13-triazatricyclo[13.3.0.0]octadec-7-en-4-yl]carbonyl(1-methyl-cyclopropyl)sulfonamide] showed an IC50 in series [1] of less than 1 µM. Besides, in series [2], the half-maximal cytotoxic concentration (CC50) is greater than 75 µM. In series [3], this compound yielded an EC50 of less than 1 µM.

`COc1cc(OC)c2c(O[C@H]3C[C@H]4C(=O)N(C)CCCC/C=C\[C@@H]5C[C@@]5(C(=O)NS(=O)(=O)C5(C)CC5)NC(=O)N4C3)cc(-c3nc(C(C)C)cs3)nc2c1` [Compound 56e, (Z)-(4R,6S,15S,17S)-[17-[5,7-dimethoxy-2-(4-isopropylthiazol-2-yl)quinolin-4-yloxy]-13-N-methyl-2,14-dioxo-1,3,13-triazatricyclo[13.3.0.0]octadec-7-en-4-yl]carbonyl(1-methyl-cyclopropyl)sulfonamide]: in series [1], the IC50 is less than 1 µM. For the same compound, in series [2], the 50% cytotoxic concentration (CC50) was greater than 75 µM. The EC50 in series [3] was in the range of 1 to 10 µM.

Regarding `COc1cc(C)c2nc(-c3nc(C(C)C)cs3)cc(O[C@H]3C[C@H]4C(=O)N(C)CCCC/C=C\[C@@H]5C[C@@]5(C(=O)NS(=O)(=O)C5(C)CC5)NC(=O)N4C3)c2c1` [Compound 56f, (Z)-(4R,6S,15S,17S)-[17-[6-methoxy-8-methyl-2-(4-isopropylthiazol-2-yl)quinolin-4-yloxy]-13-N-methyl-2,14-dioxo-1,3,13-triazatricyclo[13.3.0.0]octadec-7-en-4-yl]carbonyl(1-methyl-cyclopropyl)sulfonamide], the IC50 in series [1] was less than 1 µM. The same compound had a CC50 in series [2] greater than 75 µM. The compound also registered an EC50 in series [3] of less than 1 µM.

Turning to `COc1cc2c(O[C@H]3C[C@H]4C(=O)N(C)CCCC/C=C\[C@@H]5C[C@@]5(C(=O)NS(=O)(=O)C5(C)CC5)NC(=O)N4C3)cc(-c3nc(C(C)C)cs3)nc2cc1Cl` [Compound 56g, (Z)-(4R,6S,15S,17S)-[17-[7-chloro-6-methoxy-2-(4-isopropylthiazol-2-yl)quinolin-4-yloxy]-13-N-methyl-2,14-dioxo-1,3,13-triazatricyclo[13.3.0.0]octadec-7-en-4-yl]carbonyl(1-methyl-cyclopropyl)sulfonamide], the IC50 in series [1] is less than 1 µM. This compound also yielded a CC50 in series [2] greater than 75 µM. The EC50 in series [3] was less than 1 µM.

`COc1ccc2c(O[C@H]3C[C@H]4C(=O)N(C)CCCC/C=C\[C@@H]5C[C@@]5(C(=O)NS(=O)(=O)C5(C)CC5)NC(=O)N4C3)cc(-c3nc(C(C)C)cs3)nc2c1Br` [Compound 56h, (Z)-(4R,6S,15S,17S)-[17-[8-bromo-7-methoxy-2-(4-isopropylthiazol-2-yl)quinolin-4-yloxy]-13-N-methyl-2,14-dioxo-1,3,13-triazatricyclo[13.3.0.0]octadec-7-en-4-yl]carbonyl(1-methyl-cyclopropyl)sulfonamide]: in series [1], the IC50 is less than 1 µM. In series [2], this compound gave a CC50 greater than 75 µM. In addition, the EC50 in series [3] is less than 1 µM.

As to `COc1ccc2c(O[C@H]3C[C@H]4C(=O)N(C)CCCC/C=C\[C@@H]5C[C@@]5(C(=O)NS(=O)(=O)C5CC5)NC(=O)N4C3)cc(-c3nc(C(C)C)cs3)nc2c1C` [Compound 62b, (Z)-(4R,6S,15S,17S)-[17-[7-methoxy-8-methyl-2-(4-isopropylthiazol-2-yl)quinolin-4-yloxy]-13-N-methyl-2,14-dioxo-1,3,13-triazatricyclo[13.3.0.0]octadec-7-en-4-yl]carbonyl(cyclopropyl)sulfonamide], the IC50 in series [1] is less than 1 µM. The CC50 in series [2] is greater than 75 µM. The compound also came in with an EC50 in series [3] of less than 1 µM.
